Results as given in the NIST ThermoML archive (doi:10.1021/je900938b).

What was measured:
[1] = 101.3 kPa, Liquid; for mass density: Pycnometric method
[2] = xn = mol fraction of the nth substance listed; settings: 101 kPa, Liquid, x2 = 0; for mass density: Pycnometric method

OCCO [1,2-ethanediol]
[1]
Settings | mass density [kg/m3] | viscosity [mPa·s]
298.15 K | – | 17.4
303.15 K | 1107.1 | 13.8
308.15 K | 1103.5 | 11.5
313.15 K | 1100.3 | 9.42
318.15 K | – | 8.1
323.15 K | 1093.5 | 6.95
328.15 K | – | 5.96
333.15 K | 1085.6 | 5.22
338.15 K | 1082.1 | 4.53

OCCO [1,2-ethanediol] + OCC(O)CO
[2]
Settings | mass density [kg/m3] | viscosity [mPa·s]
298.15 K | – | 17.4
303.15 K | 1107.1 | 13.8
308.15 K | 1103.5 | 11.5
313.15 K | 1100.3 | 9.42
318.15 K | – | 8.1
323.15 K | 1093.5 | 6.95
328.15 K | – | 5.96
333.15 K | 1085.6 | 5.22
338.15 K | 1082.1 | 4.53

OCC(O)CO [glycerol]
[1]
Settings | mass density [kg/m3] | viscosity [mPa·s]
298.15 K | 1257.8 | 943.8
303.15 K | 1254.7 | 628.9
308.15 K | 1252.2 | 431.9
313.15 K | 1249.4 | 295.9
318.15 K | 1245.8 | 185.8
323.15 K | 1242.3 | 151.2
328.15 K | 1239.3 | 108.4
333.15 K | 1236.1 | 84.8
338.15 K | 1232.8 | 62.2
